# Assay results reported in publication PMC11013038, “Design, Synthesis, and Evaluation of B-(Trifluoromethyl)phenyl Phosphine–Borane Derivatives as Novel Progesterone Receptor Antagonists” (Molecules, 2024).
# Experiments:
# [1] = target: T1, progesterone receptor (PR) (Homo sapiens, UniProt P06401); experiment: T47D alkaline phosphatase assay, PR antagonistic activity in the presence of 1 nM P4; type: cell-based; settings: for IC50: T47D cells, 1.0 nM P4, 48 h, mean ± SD from three independent experiments
# T1 construct: alkaline phosphatase assay with the T47D human breast cancer cell line; endogenous in cells; host or cells: T47D
# T1 sequence (P06401 1-933): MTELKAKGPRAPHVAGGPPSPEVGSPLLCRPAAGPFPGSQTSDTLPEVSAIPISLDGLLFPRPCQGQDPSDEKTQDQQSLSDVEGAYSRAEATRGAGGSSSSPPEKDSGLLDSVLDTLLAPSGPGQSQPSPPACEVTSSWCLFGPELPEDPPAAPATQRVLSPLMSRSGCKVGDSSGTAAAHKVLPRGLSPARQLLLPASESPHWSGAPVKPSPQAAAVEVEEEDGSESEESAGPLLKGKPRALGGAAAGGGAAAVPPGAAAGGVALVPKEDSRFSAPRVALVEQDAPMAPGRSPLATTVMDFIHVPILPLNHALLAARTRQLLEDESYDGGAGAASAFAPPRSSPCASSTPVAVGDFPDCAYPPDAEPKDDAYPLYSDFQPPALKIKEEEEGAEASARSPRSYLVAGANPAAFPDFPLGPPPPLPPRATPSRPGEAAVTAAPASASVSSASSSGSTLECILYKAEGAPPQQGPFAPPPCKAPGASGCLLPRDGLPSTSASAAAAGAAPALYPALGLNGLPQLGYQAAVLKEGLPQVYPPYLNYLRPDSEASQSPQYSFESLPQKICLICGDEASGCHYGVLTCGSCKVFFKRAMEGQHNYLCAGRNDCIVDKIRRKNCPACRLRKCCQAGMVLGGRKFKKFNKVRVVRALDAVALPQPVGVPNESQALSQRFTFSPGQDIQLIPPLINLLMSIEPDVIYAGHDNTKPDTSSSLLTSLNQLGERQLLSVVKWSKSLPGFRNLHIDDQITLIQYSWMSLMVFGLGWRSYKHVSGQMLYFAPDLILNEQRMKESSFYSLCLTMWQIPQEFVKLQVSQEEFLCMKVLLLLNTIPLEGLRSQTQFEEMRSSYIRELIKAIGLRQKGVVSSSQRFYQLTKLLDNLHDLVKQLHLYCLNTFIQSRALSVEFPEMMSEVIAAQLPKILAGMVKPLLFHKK
# Method: (§1) The PR agonistic and antagonistic activities of the synthesized phosphine–borane derivatives were evaluated using an alkaline phosphatase assay with the T47D human breast cancer cell line. […] The basal alkaline phosphatase activity was also not affected by the tested compounds alone. […] The PR antagonistic activities of the compounds were assessed in the presence of 1 nM of P4 (5). We also calculated the molecular volume of each compound to investigate the structure–activity relationship (SAR). Table 2 summarizes the PR antagonistic activity and calculated volumes of the synthesized compounds. […] We investigated the binding affinity of the compounds toward the PR ligand-binding domain (LBD) using a fluorescence polarization assay system. […] We also investigated the activity of compounds 28 and 34 toward the androgen receptor (AR) by means of cell-proliferation promoting/inhibitory activity toward androgen-dependent SC-3 cells. […].
# T47D alkaline phosphatase assays were performed as previously described, with minor modifications. Briefly, the human breast cancer cell line T47D (HMS LINCS database Accession Numbers: 50541) was routinely cultivated in RPMI 1640 medium with 10% FBS at 37 °C in a 5% CO2 humidified incubator. The cells were plated in 96-well plates and incubated overnight in a 5% CO2 humidified incubator at 37 °C. The next day, the cells were treated with a fresh medium containing the test compound in the presence of 1 nM of progesterone and further incubated for 48 h. The medium was aspirated, and the cells were fixed with 100 μL of 1.8% formalin–PBS. The fixed cells were washed with PBS, and 100 μL of an assay buffer (1 mg/mL p-nitrophenol phosphate in diethanolamine water solution, pH 9.0) was added. The mixture was incubated at room temperature for 2 h under light-shielded conditions. The absorbance was measured at 405 nm using a DTX 880 Multimode Detector (Beckman Coulter, Brea, CA, USA). All data points were measured in triplicate, and IC50 values were calculated from three independent experiments.
# [2] = target: T2, PR ligand-binding domain (LBD) (Homo sapiens, UniProt P06401); experiment: PR LBD competitive binding assay (fluorescence polarization, PolarScreen kit); settings: fluorescence polarization competition, 100 nM to 32 μM, Figure 5
# T2 construct: purchased Invitrogen A15905
# T2 sequence (P06401 679-913 limits assumed): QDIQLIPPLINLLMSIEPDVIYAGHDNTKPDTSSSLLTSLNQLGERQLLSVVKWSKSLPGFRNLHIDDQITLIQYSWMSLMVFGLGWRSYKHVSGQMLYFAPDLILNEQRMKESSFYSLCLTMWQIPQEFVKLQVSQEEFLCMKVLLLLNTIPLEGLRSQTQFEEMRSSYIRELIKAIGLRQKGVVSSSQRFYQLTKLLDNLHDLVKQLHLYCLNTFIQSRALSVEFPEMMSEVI
# Method: as §1
# PR binding affinity was assessed using a PolarScreen Progesterone Receptor Competitor Assay Kit, Green (Invitrogen, Waltham, MA, USA, A15905) based on the manufacturer’s instruction. […] The fluorescence polarization value (mP) was measured at 485 nm/535 nm (excitation/emission) on a DTX 880 Multimode Detector (Beckman Coulter).
compound,measurement,setting,value
"C[P+](C)(C)[BH2-]c1ccc(C(F)(F)F)cc1 [Compound 28, B-4-(Trifluoromethyl)phenyl Trimethylphosphine–Borane]",IC50,[1],> 10000 nM
same,binding affinity toward PR LBD (in words),[2],did not show the affinity
"FC(F)(F)c1ccc([BH2-][P+](C2CC2)(C2CC2)C2CC2)cc1 [Compound 34, B-4-(Trifluoromethyl)phenyl Tricyclopropylphosphine–Borane]",potency relative to triisopropylphosphine derivative 32,"[1]; T47D alkaline phosphatase assay, comparison of IC50",approximately three times more potent
same,IC50,[1],540 ± 90 nM
same,binding affinity toward PR LBD (in words),[2],exhibited significant affinity toward PR LBD
